Data set [1] deals with LNCap prostate tumor cells. As to the kind of experiment: In vitro cytotoxicity, Alamar Blue assay, LNCaP. The settings on record: 72 HRS, read-out: LNCaP Cell Kill in 72 HRS, {48 HRS} EC 50. The class given is cell-based. As for the experimental part: (§1) The cytotoxicities of the cleaveable oligopeptide-doxorubicin conjugates, prepared as described in Examples 3-6, against a line of cells which is known to be killed by unmodified doxorubicin was assessed with an Alamar Blue assay. Specifically, cell cultures of LNCap prostate tumor cells or DuPRO cells in 96 well plates was diluted with medium containing various concentrations of a given conjugate (final plate well volume of 200 μl ). The cells were incubated for 3 days at 37° C., 20 μl of Alamar Blue is added to the assay well. The cells were further incubated and the assay plates were read on a EL-310 ELISA reader at the dual wavelengths of 570 and 600 nm at 4 and 7 hours after addition of Alamar Blue. Relative percentage viability at the various concentration of conjugate tested was then calculated versus control (no conjugate) cultures. If no salt is indicated, the free conjugate was tested.
A general note: Alamar Blue is a resazurin reagent that responds to reducing activity.

Another data set concerns DuPRO cells. As to the kind of experiment: In vitro cytotoxicity, Alamar Blue assay, DuPRO. Conditions: value in parentheses beside the LNCaP value, read-out: DuPRO cell kill EC 50. It is filed as cell-based. As for the experimental part: as §1
Data set [2] deals with T1, enzymatically active free PSA (Homo sapiens, UniProt P07288).
T1 construct: required for 50% cleavage of the noted oligopeptides with enzymatically active free PSA
T1 sequence (P07288 25-261): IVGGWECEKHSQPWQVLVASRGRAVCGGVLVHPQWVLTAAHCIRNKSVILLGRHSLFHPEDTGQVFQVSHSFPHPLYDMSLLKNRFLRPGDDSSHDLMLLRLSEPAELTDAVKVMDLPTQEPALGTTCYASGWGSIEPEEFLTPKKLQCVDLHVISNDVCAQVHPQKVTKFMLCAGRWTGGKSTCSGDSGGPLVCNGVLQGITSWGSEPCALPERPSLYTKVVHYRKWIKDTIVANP
As to the kind of experiment: Recognition (cleavage) of oligopeptide-doxorubicin conjugates by free PSA, HPLC. The class given is biochemical. Conditions: DOX conjugate; for Time to 50% Substrate Cleavage by York PSA: PSA digestion buffer pH7.4, 140 mM NaCl, molar ratio to PSA 100 to 1. As for the experimental part: If no salt is indicated for the conjugate, the free conjugate was tested.

Setting [3] is: listed as PEG(2)-ShRYQ-SL-DOX(3′).

Like-named read-outs stand apart in the source and are kept apart here. Marks after values point to notes of the source that are not given here. Non-standard residues stand in square brackets, D forms with d. Residues, ends and D or L forms follow the SMILES beside them. *: point of attachment. Doxorubicin(3'-N) = COc1cccc2c1C(=O)c1c(O)c3c(c(O)c1C2=O)C[C@@](O)(C(=O)CO)C[C@@H]3O[C@H]1C[C@H](N*)[C@H](O)[C@H](C)O1; Dox = doxorubicin, linked through its 3'-amine to the C-terminal carbonyl; Decanoyl(3,6,9-trioxa) = COCCOCCOCC(=O)*; Glyceroyl(2S) = O=C([C@@H](O)CO)*; Glyceroyl(2R) = O=C([C@H](O)CO)*; hArg = N=C(N)NCCCC[C@H](N)C(=O)O; X1 = O=C([C@H](O)[C@@H](O)CO)*; Chg = N[C@H](C(=O)O)C1CCCCC1; hSer = N[C@@H](CCO)C(=O)O; Nle = CCCC[C@H](N)C(=O)O; Glycolyl = O=C(CO)*; X3 = O=C(C(O)CO)*

Turning to `COc1cccc2c1C(=O)c1c(O)c3c(c(O)c1C2=O)C[C@@](O)(C(=O)CO)C[C@@H]3O[C@H]1C[C@H](NC(=O)[C@H](CC(C)C)NC(=O)[C@H](CO)NC(=O)[C@H](CCC(N)=O)NC(=O)[C@@H](NC(=O)[C@H](CO)NC(=O)[C@H](CO)NC(=O)[C@H](CCO)NC(=O)C(O)CO)C2CCCCC2)[C@H](O)[C@H](C)O1` (some centres unmarked) [(2,3-dihydroxypropionyl)-hSerSerSerChgGln-SerLeu-DOX (3′)] (X3-[hSer]SS[Chg]QSL-{Doxorubicin(3'-N)}), the values for the EC50 (in data set [1]; in the data set with DuPRO cells) were 5.1 µM and 90 µM, respectively. Further, the “Time to 50% Substrate Cleavage by York PSA” value in data set [2] came to 35 min.
As to `COc1cccc2c1C(=O)c1c(O)c3c(c(O)c1C2=O)C[C@@](O)(C(=O)CO)C[C@@H]3O[C@H]1C[C@H](NC(=O)[C@@H](CC(C)C)NC(=O)[C@H](CO)NC(=O)[C@H](CCC(N)=O)NC(=O)[C@@H](NC(=O)[C@H](CO)NC(=O)[C@H](CO)NC(=O)[C@@H](O)CO)C2CCCCC2)[C@H](O)[C@H](C)O1` [(l)(2,3-dihydroxypropionyl)SerSerChgGln-Ser(dLeu)-DOX (3′)] ({Glyceroyl(2S)}-SS[Chg]QS[dL]-{Doxorubicin(3'-N)}), the EC50 (in data set [1]; with DuPRO cells) was above 100 µM each time. Also, the “Substrate cleavage by York PSA at 3 HOUR” value in data set [2] (3 hours) was determined as 22%.
On to `COc1cccc2c1C(=O)c1c(O)c3c(c(O)c1C2=O)C[C@@](O)(C(=O)CO)C[C@@H]3O[C@H]1C[C@H](NC(=O)[C@@H](CC(C)C)NC(=O)[C@H](CO)NC(=O)[C@H](CCC(N)=O)NC(=O)[C@@H](NC(=O)[C@H](CO)NC(=O)[C@H](CO)NC(=O)[C@H](CO)NC(=O)[C@@H](O)CO)C2CCCCC2)[C@H](O)[C@H](C)O1` [(l)(2,3-dihydroxypropionyl)SerSerSerChgGln-Ser(dLeu)-DOX (3′)] ({Glyceroyl(2S)}-SSS[Chg]QS[dL]-{Doxorubicin(3'-N)}), for which the figures for the EC50 (in data set [1]; in the data set with DuPRO cells) were 91 µM and above 100 µM, respectively. For the same molecule, the “Time to 50% Substrate Cleavage by York PSA” value in data set [2] came to 180 min.
Turning to `COCCOCCOCC(=O)N[C@@H](CO)C(=O)N[C@@H](CCCCNC(=N)N)C(=O)N[C@@H](Cc1ccc(O)cc1)C(=O)N[C@@H](CCC(N)=O)C(=O)N[C@@H](CO)C(=O)N[C@@H](CC(C)C)C(=O)N[C@H]1C[C@H](O[C@H]2C[C@](O)(C(=O)CO)Cc3c(O)c4c(c(O)c32)C(=O)c2c(OC)cccc2C4=O)O[C@@H](C)[C@H]1O` [PEG(2)-SHomoRYQ-SL-DOX(3′), PEG(2)-SerhArgTyrGln-SerLeu-DOX(3′)] ({Decanoyl(3,6,9-trioxa)}-S[hArg]YQSL-{Doxorubicin(3'-N)}), the EC50 in data set [1] (setting [3]) was 4.5 µM; with DuPRO cells (setting [3]) it was above 100 µM. Besides, the “Time to 50% Substrate Cleavage by York PSA” value in data set [2] came to 35 min.
As to `COc1cccc2c1C(=O)c1c(O)c3c(c(O)c1C2=O)C[C@@](O)(C(=O)CO)C[C@@H]3O[C@H]1C[C@H](NC(=O)[C@H](CC(C)C)NC(=O)[C@H](CO)NC(=O)[C@H](CCC(N)=O)NC(=O)[C@@H](NC(=O)[C@H](CO)NC(=O)[C@H](CO)NC(=O)[C@H](CCCCNC(=N)N)NC(=O)[C@H](O)CO)C2CCCCC2)[C@H](O)[C@H](C)O1` [(d)(2,3-dihydroxypropionyl)-hArgSerSerChgGln-SerLeu-DOX(3′)] ({Glyceroyl(2R)}-[hArg]SS[Chg]QSL-{Doxorubicin(3'-N)}), the EC50 in data set [1] is 7.7 µM; in the data set with DuPRO cells, above 100 µM. Further, in data set [2], the “Time to 50% Substrate Cleavage by York PSA” value stood at 12 min.
On to `COc1cccc2c1C(=O)c1c(O)c3c(c(O)c1C2=O)C[C@@](O)(C(=O)CO)C[C@@H]3O[C@H]1C[C@H](NC(=O)[C@H](CC(C)C)NC(=O)[C@H](CO)NC(=O)[C@H](CCC(N)=O)NC(=O)[C@@H](NC(=O)[C@H](CO)NC(=O)[C@H](CO)NC(=O)[C@H](CO)NC(=O)[C@@H](O)CO)C2CCCCC2)[C@H](O)[C@H](C)O1` [N-2(S)-2,3-dihydroxypropionyl-Ser-Ser-Ser-Chg-Gln-Ser-Leu-Dox] ({Glyceroyl(2S)}-SSS[Chg]QSL-{Doxorubicin(3'-N)}), for which the EC50 in data set [1] was 5.5 µM; with DuPRO cells it was above 100 µM. For the same molecule, the “Time to 50% Substrate Cleavage by York PSA” value in data set [2] worked out at 25 min.
The corresponding values for `COCCOCCOCC(=O)N[C@@H](CCCCNC(=N)N)C(=O)N[C@@H](CO)C(=O)N[C@@H](CO)C(=O)N[C@H](C(=O)N[C@@H](CCC(N)=O)C(=O)N[C@@H](CO)C(=O)N[C@@H](CC(C)C)C(=O)N[C@H]1C[C@H](O[C@H]2C[C@](O)(C(=O)CO)Cc3c(O)c4c(c(O)c32)C(=O)c2c(OC)cccc2C4=O)O[C@@H](C)[C@H]1O)C1CCCCC1` [PEG(2)-HomoRSSChgQ-SL-DOX (3′), PEG(2)-hArgSerSerChgGln-SerLeu-DOX (3′)] ({Decanoyl(3,6,9-trioxa)}-[hArg]SS[Chg]QSL-{Doxorubicin(3'-N)}) are 5.7 µM, above 100 µM and 11 min.
As for `COc1cccc2c1C(=O)c1c(O)c3c(c(O)c1C2=O)C[C@@](O)(C(=O)CO)C[C@@H]3O[C@H]1C[C@H](NC(=O)[C@H](CC(C)C)NC(=O)[C@H](CO)NC(=O)[C@H](CCC(N)=O)NC(=O)[C@@H](NC(=O)[C@H](CO)NC(=O)[C@H](CO)NC(=O)CO)C2CCCCC2)[C@H](O)[C@H](C)O1` [2-hydroxyacetyl-SSChgQ-SL-DOX (3′)] (Glycolyl-SS[Chg]QSL-{Doxorubicin(3'-N)}), the values for the EC50 (in data set [1]; in the data set on DuPRO cells) were 4.8 µM and above 100 µM, respectively. The “Time to 50% Substrate Cleavage by York PSA” value in data set [2] was 45 min.
For the molecule `COCCOCCOCC(=O)N[C@@H](CO)C(=O)N[C@@H](CO)C(=O)N[C@H](C(=O)N[C@@H](CCC(N)=O)C(=O)N[C@@H](CO)C(=O)N[C@@H](CC(C)C)C(=O)N[C@H]1C[C@H](O[C@H]2C[C@](O)(C(=O)CO)Cc3c(O)c4c(c(O)c32)C(=O)c2c(OC)cccc2C4=O)O[C@@H](C)[C@H]1O)C1CCCCC1` [PEG(2)SSChgQ-SL-DOX (3′), PEG(2)SerSerChgGln-SerLeu-DOX (3′)] ({Decanoyl(3,6,9-trioxa)}-SS[Chg]QSL-{Doxorubicin(3'-N)}), the EC50 in data set [1] was 8.8 µM; in the data set on DuPRO cells, above 100 µM. Further, in data set [2], the “Time to 50% Substrate Cleavage by York PSA” value was 90 min.
The corresponding values for `COc1cccc2c1C(=O)c1c(O)c3c(c(O)c1C2=O)C[C@@](O)(C(=O)CO)C[C@@H]3O[C@H]1C[C@H](NC(=O)[C@H](CC(C)C)NC(=O)[C@H](CO)NC(=O)[C@H](CCC(N)=O)NC(=O)[C@@H](NC(=O)[C@H](CCCCNC(=N)N)NC(=O)[C@H](CO)NC(=O)[C@H](O)[C@@H](O)CO)C2CCCCC2)[C@H](O)[C@H](C)O1` [(2R,3S) 2,3,4-trihydroxybutanoyl-SerhArgChgGln-SerLeu-DOX (3′)] (X1-S[hArg][Chg]QSL-{Doxorubicin(3'-N)}) are 14.1 µM, above 100 µM and 45 min.
For `COc1cccc2c1C(=O)c1c(O)c3c(c(O)c1C2=O)C[C@@](O)(C(=O)CO)C[C@@H]3O[C@H]1C[C@H](NC(=O)[C@H](CC(C)C)NC(=O)[C@H](CO)NC(=O)[C@H](CCC(N)=O)NC(=O)[C@@H](NC(=O)[C@H](CCCCNC(=N)N)NC(=O)[C@H](CO)NC(=O)[C@H](O)CO)C2CCCCC2)[C@H](O)[C@H](C)O1` [(d) 2,3-dihydroxypropionyl-SerhArgChgGln-SerLeu-DOX (3′)] ({Glyceroyl(2R)}-S[hArg][Chg]QSL-{Doxorubicin(3'-N)}), the EC50 was 5.8 µM in data set [1] and above 100 µM with DuPRO cells. Besides, the “Time to 50% Substrate Cleavage by York PSA” value in data set [2] was 65 min.
For “N-[2-{2-(2-methoxyethoxy)ethoxy}acetyl]-Ser-Ser-Ser-Chg-Gln-Ser-Leu-Dox ({Decanoyl(3,6,9-trioxa)}-SSS[Chg]QSL-Dox) [PEG(2)-SSSChgQ-SL-DOX (3′)]”, the EC50 was 10 µM in data set [1] and above 100 µM in the data set on DuPRO cells. Further, the “Time to 50% Substrate Cleavage by York PSA” value in data set [2] was 60 min.
Turning to `CCCC[C@H](NC(=O)[C@H](CO)NC(=O)[C@H](CCC(N)=O)NC(=O)[C@H](Cc1ccc(O)cc1)NC(=O)[C@H](CO)NC(=O)[C@H](CO)NC(=O)[C@H](CCCCNC(=N)N)NC(=O)CO)C(=O)N[C@H]1C[C@H](O[C@H]2C[C@](O)(C(=O)CO)Cc3c(O)c4c(c(O)c32)C(=O)c2c(OC)cccc2C4=O)O[C@@H](C)[C@H]1O` [2-hydroxyacetyl-HomoRSSYQ-SNle-DOX (3′), 2-hydroxyacetyl-hArgSerSerTyrGln-SerNle-DOX (3′)] (Glycolyl-[hArg]SSYQS[Nle]-{Doxorubicin(3'-N)}), the EC50 in data set [1] is 3.6 µM; with DuPRO cells, above 100 µM. Also, in data set [2] (alternative PSA digestion buffer pH8.0, 25 mM NaCl, 0.5 mM CaCl2), the “Time to 50% Substrate Cleavage by York PSA (Min), value marked *” value is 60* Min.
For the molecule `COc1cccc2c1C(=O)c1c(O)c3c(c(O)c1C2=O)C[C@@](O)(C(=O)CO)C[C@@H]3O[C@H]1C[C@H](NC(=O)[C@H](CC(C)C)NC(=O)[C@H](CO)NC(=O)[C@H](CCC(N)=O)NC(=O)[C@@H](NC(=O)[C@H](CCCCNC(=N)N)NC(=O)[C@H](CO)NC(=O)CO)C2CCCCC2)[C@H](O)[C@H](C)O1` [2-hydroxyacetyl-SHomoRChgQ-SL-DOX (3′), 2-hydroxyacetyl-SerhArgChgGln-SerLeu-DOX (3′)] (Glycolyl-S[hArg][Chg]QSL-{Doxorubicin(3'-N)}), the EC50 was 5.1 µM in data set [1] and above 100 µM with DuPRO cells.

Values taken from US6391305B1, “Conjugates useful in the treatment of prostate cancer” (priority 1999, dated 2002).
